From patent EP2213288A1 (Welte, Karl, priority 2009, dated 2010)

What was measured:
[1] = tested on: promyelocytic leukemia cell line HL-60; assay: Myeloid differentiation of HL-60 cells
Description: Granulocytic differentiation was characterized by FACS analysis of cells stained with antibody specific to CD16 (Immunotools), CD15 (BD Pharmigen) or CD11b (BD Pharmigen) and by morphological assessment of Wright-Giemsa-stained cytospin slides. […] We cultured HL-60 cells in the presence of 10 ng ml^-1 human rhG-CSF(Cell systems Biotechnoogy), 10 ng ml^-1 human rhNAMPT (Phoenix Pharmaceuticals) or 0.1µM ATRA (Sigma). For the measurement of NAD^+, 0.5 M ice-cold HClO4 was added to the cells, or cell culture supernatants or plasma; after 2 min, 100µl of supernatants was collected by centrifugation at 3,000g for 5 min, was 20µl K2HPO4 (1 M) added with cooling on ice and adjusted pH to 7.2-7.4 with KOH. 50µl of supernatant was given to the reaction mixture containing 0.1 M sodiumpyrophosphate-semicarbazid (Sigma) (pH 8.8), absolute ethanol and dH2O, NAD^+ spectrophotometrically was assessed at 339 nm at room temperature (25°C) as as mean difference in absorbance before (A1) and 6 min after (A2) addition of alcohol dehydrogenase (Roche).

[2] = tested on: CD34^+ cells; assay: NAMPT inhibition (FK866) or G-CSFR knock-down in G-CSF- or NAMPT-stimulated CD34+ cells
Description: NAMPT is induced by G-CSF, so it was further analyzed whether this enzyme is required for G-CSF-triggered granulopoiesis.
DNA oligonucleotides corresponding to position 642 bp to 660 bp of the human CSF3R gene sequence were chemically synthesized. These nucleotides also contained overhang sequences from a 5' BglII- and a 3'HindIII- restriction sites. The numbering of the first nucleotide of the shRNAs refers to the ATG start codon. The oligonucleotide sequences was as follows […] (Seq. ID No. 3). The oligonucleotides were inserted into the BglII/HindIII-digested pSUPER-derived plasmid to generate pSUPER-CSF3R_642 and verified the isolated clone by DNA sequencing. To generate lentiviral transgenic plasmids containing shRNA expression cassettes located in the U3 region of the […]3'-LTR pRRL,PPT.SF.DsRedEx.pre was used. pRRL.PPT.SF.DsRedEx.pre is a derivative of the standard lentiviral vector pRRL.PPT.PGK, DsRedEx.pre (kindly provided by Luigi Naldini, Milano, Italy) using an internal SFFV promoter. To generate the lentiviral CSF3R_642-SR plasmid, the pSUPER-CSF3R_642 was digested with SmaI and HincII and ligated the resulting DNA fragments (360 bp) into the SnaBI site of the pRRL.PPT.SF.DsRedEx,pre. The lentiviral plasmid encodes RFPEXPRESS as reporter gene.

[3] = tested on: CD34^+ bone marrow progenitor cells from healthy individuals; assay: Granulocytic/myeloid differentiation of cultured CD34+ cells from healthy individuals (FACS, qRT-PCR, ELISA, NAD+ measurement); assay type: cell-based, human; details: FACS analysis; nicotinamide 1 mM or 10 mM; lentiviral transduction MOI 1-2
Description: Bone marrow and peripheral blood mononuclear cells were isolated by Ficoll-Hypaque gradient centrifugation (Amersham Biosciences) and positively selected bone marrow CD34^+ and CD33^+ cells by sequential immunomagnetic labeling with corresponding magnetic cell-sorting beads (Miltenyi Biotech). Peripheral blood PMNs were isolated by Ficoll-Hypaque gradient centrifugation and by subsequent hypotonic lysis of erythrocytes in cell pellet, Cells were counted and viability was assessed by trypan blue dye exclusion. The purity of sorted CD34^+ cells, CD33^+ cells and PMNs was more than 96% as assessed by FACS analysis and by staining with May-Grünwald-Giemsa.
Purified PMNs and CD33^+ cells were cultured in RPMI-1640 medium supplemented with 1% heat-inactivated autologous human serum with or without addition of 10 ng ml^-1 of recombinant human G-CSF (rhG-CSF) (Cell Systems Biotechnology). […] For assessment of G-CSFR protein expression cells were stained with unconjugated antibody to mouse G-CSFR and secondary FITC-conjugated antibody and measured G-CSFR expression by FACS. […] G-CSF protein was measured by G-CSF-specific ELISA from R&D Systems and NAMPT protein by NAMPT specific carboxy-terminal enzyme immunometric assay (Phoenix Pharmaceuticals).

[4] = 25-50 mg kg^-1 d^-1, subjects with type 1 diabetes; cited from earlier work
[5] = Treatment of healthy individuals with vitamin B3, blood cell analysis; assay type: in vivo, human

CC1=C(/C=C/C(C)=C/C=C/C(C)=C/C(=O)O)C(C)(C)CCC1 [ATRA, all-trans-retinoid acid]
myeloid (granulocytic) differentiation of HL-60 cells ([1]; 10 ng ml^-1 rhG-CSF, 10 ng ml^-1 rhNAMPT or 0.1µM ATRA, or lentiviral transduction): differentiates into granulocytes
levels of iNAD^+ as well as mRNAs of SIRT1, C/EBPα and C/EBPβ ([1]; compared with untreated controls): Elevated levels

O=C(/C=C/c1cccnc1)NCCCCC1CCN(C(=O)c2ccccc2)CC1 [FK866]
cell viability and proliferation ([2]; 1 nM FK866): no effect
G-CSF induction of C/EBPα or C/EBPβ mRNA expression and G-CSFR mRNA or protein expression ([2]; NAMPT activity inhibited with FK866): unable to induce
G-CSF or iNAD^+ levels in G-CSF- or NAMPT-stimulated cells ([2]; cells pretreated with FK866): no increase
G-CSF-triggered granulocytic differentiation ([2]; pretreatment with 1 nM FK866, then G-CSF): substantially abrogated

NC(=O)c1cccnc1 [vitamin B3, nicotinamide]
myeloid differentiation of CD34^+ cells [3]: induced myeloid differentiation of CD34^+ cells in a dose-dependent manner
side effects [4]: no side effects
increase in the neutrophilic granulocyte content ([5]; 10-20 mg kg^-1 d^-1, within 2 d): up to twofold
iNAD^+ levels in PMNs ([5]; compared with steady-state levels): Increased
C/EBPα and C/EBPβ mRNA levels in bone marrow CD34^+ cells, CD33^+ cells and in peripheral blood PMNs ([5]; healthy individuals): upregulation
CD34^+ hematopoietic progenitor cells in peripheral blood ([5]; healthy individuals): mobilisation
Other blood cell lineages ([5]; healthy individuals): unaffected
decline of neutrophil numbers to the physiological level after discontinuation ([5]; healthy individuals): 2-3 d
time after initiation of treatment at which increased neutrophil numbers were detected ([5]; healthy individuals): 1 to 2 days
numbers of neutrophilic granulocytes ([5]; six healthy individuals, 10 mg per kg per d for 1 week): significant increases
adverse effects ([5]; treated healthy individuals): no adverse effects
